Measurements published in patent US4990531A, “Derivatives of 1-arylsulphonyl-2-pyrrolidinone and their use as medicaments” (Roussel Uclaf, priority 1988, dated 1991).
Like-named read-outs stand apart in the source and are kept apart here.

How the values were obtained:
[1] = molecular target: Muscarine receptor 2; test: Bonding with cerebral receptors: muscarine receptor 2 (3H quinuclidinyl benzylate, rat brain); type: binding; conditions: 0.3 nM 3H quinuclidinyl benzylate, 60 min, 25° C., pH 7.5; read-out: Affinity for muscarine receptor M2 (/3H/Quinuclidinyl benzylate), IC50
Description: The preparation is made from the brains of a male rat weighing 150 to 200 g (Iffa Credo).
The brains are pulverized (Teflon-glass) in a 0.32M solution of sucrose. The homogenate is centrifuged for 10 minutes at 1000 g (0°-4° C.).
The supernatant obtained is recovered and centrifuged at 30,000 g for 15 minutes (0°-4° C.).
The deposit is put in suspension in a buffer Tris 50 mM pH 7.5 and the new homogenate is centrifuged again at 30,000 g for 15 minutes (0°-4° C.).
The deposits after elimination of the supernatant, can be used straight-away or kept for up to one month at -30° C.
For one experiment the deposits are first of all thawed out, if necessary, to ambient temperature and put in suspension, using a Dounce, in a buffer Tris 50 mM pH 7.5. Aliquots of 2 ml are incubated for 60 minutes at 25° C. in the presence of 0.3 nM of ^3 H quinuclidinyl benzylate either alone, or with the product under test, or with benzatropine at 10^-5 M in order to determine the non-specific radioactivity fixed.
At the end of the incubation the incubate tubes are cooled to 4° C. and filtered rapidly on Whatman GF/C filters. The filters are rinsed with 3×5 ml of buffer Tris 50 mM pH 7.5, then measurements are made by liquid scintillation [Henry I Yamamura, Solomon H. Snyder, Proc. Nat. Acad. Sc. (1974) 71 No. 5, 1725-1729).

[2] = molecular target: serotonine 5 HT1 receptor; test: Affinity for other receptors: serotonine 5 HT1; type: binding; conditions: negligible affinity
[3] = molecular target: serotonine 5 HT2 receptor (Homo sapiens, UniProt P28223); test: Affinity for other receptors: serotonine 5 HT2; type: binding; conditions: negligible affinity
Sequence of serotonine 5 HT2 receptor (P28223 whole entry): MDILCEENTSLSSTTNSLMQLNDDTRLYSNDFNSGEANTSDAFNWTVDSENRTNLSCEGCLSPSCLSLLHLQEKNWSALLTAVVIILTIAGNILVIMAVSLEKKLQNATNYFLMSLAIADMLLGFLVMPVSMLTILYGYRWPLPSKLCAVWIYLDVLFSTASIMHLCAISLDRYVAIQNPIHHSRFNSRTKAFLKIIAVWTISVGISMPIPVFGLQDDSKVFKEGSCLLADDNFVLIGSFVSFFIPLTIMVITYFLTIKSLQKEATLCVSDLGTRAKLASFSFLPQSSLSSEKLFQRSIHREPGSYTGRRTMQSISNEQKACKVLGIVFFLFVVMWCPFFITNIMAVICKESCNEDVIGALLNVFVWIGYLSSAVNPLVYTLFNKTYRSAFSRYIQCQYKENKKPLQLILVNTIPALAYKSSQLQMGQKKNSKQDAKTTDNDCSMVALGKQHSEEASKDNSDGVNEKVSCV

[4] = molecular target: benzodiazepine receptor; test: Affinity for other receptors: benzodiazepines; type: binding; conditions: negligible affinity
[5] = molecular target: GABA receptor; test: Affinity for other receptors: GABA; type: binding; conditions: negligible affinity
[6] = molecular target: adrenoreceptor alpha 1; test: Affinity for other receptors: adrenoreceptor alpha 1; type: binding; conditions: negligible affinity
[7] = molecular target: adrenoreceptor alpha 2; test: Affinity for other receptors: adrenoreceptor alpha 2; type: binding; conditions: negligible affinity
[8] = molecular target: adrenoreceptor beta 1 (Homo sapiens, UniProt P08588); test: Affinity for other receptors: adrenoreceptor beta 1; type: binding; conditions: negligible affinity
Sequence of adrenoreceptor beta 1 (P08588 whole entry): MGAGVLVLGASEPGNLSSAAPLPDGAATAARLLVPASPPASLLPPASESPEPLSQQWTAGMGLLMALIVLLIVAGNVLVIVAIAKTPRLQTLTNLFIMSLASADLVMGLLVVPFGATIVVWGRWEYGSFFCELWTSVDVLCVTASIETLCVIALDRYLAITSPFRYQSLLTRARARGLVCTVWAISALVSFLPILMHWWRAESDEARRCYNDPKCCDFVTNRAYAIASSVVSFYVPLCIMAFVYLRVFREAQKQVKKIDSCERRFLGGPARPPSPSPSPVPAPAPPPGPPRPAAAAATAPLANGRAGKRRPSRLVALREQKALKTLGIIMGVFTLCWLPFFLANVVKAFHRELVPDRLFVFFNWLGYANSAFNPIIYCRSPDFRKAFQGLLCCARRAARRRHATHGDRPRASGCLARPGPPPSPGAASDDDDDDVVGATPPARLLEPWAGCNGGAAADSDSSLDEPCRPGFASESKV

[9] = molecular target: opiated receptor kappa (Homo sapiens, UniProt P41145); test: Affinity for other receptors: opiated receptor kappa; type: binding; conditions: negligible affinity
Sequence of opiated receptor kappa (P41145 whole entry): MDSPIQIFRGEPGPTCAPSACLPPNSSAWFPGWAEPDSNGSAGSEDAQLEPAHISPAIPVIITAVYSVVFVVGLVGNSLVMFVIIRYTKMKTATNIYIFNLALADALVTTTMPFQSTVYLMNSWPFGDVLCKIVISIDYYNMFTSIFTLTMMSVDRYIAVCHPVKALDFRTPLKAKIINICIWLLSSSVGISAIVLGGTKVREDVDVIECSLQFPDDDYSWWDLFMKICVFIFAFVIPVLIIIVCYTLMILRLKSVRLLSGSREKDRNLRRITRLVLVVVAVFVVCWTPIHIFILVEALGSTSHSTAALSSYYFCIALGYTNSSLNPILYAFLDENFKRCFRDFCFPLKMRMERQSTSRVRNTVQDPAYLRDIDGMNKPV

[10] = system: contractions induced by serotonine, isolated ileum; test: Antagonism of serotonine-induced contractions, isolated guinea-pig ileum; conditions: serotonine 1×10^-6 M; contact time one minute; read-out: Antagonism with various agents (IC50): Seroton.
Description: (§1) The interaction of the compounds with various receptors was evaluated on the isolated ileum of a guinea-pig according to the following method.
(§2) Segments of the ileum of guinea-pigs of 2.5-3 cm were washed and immediately suspended in a bath containing 10 ml of Tyrode's solution at 37° C. and aerated with a mixture of oxygen (95%) and carbon dioxide (5%). After a stabilization period of at least 30 minutes contractions were recorded, while the preparation was maintained under constant tension of 1 g, by means of a detector connected to a polygraph. The agonistic action was evaluated by leaving the compound in contact with the isolated tissue for a period necessary to show the maximum […]; then it was washed with the Tyrode's solution. The following dose was added only after the preparation had returned to its base line. Arecoline was used as a reference product. The antagonist action was evaluated on the contractions induced by acetylcholine (1×10^-6 M), histamine (1×10^-5 M), serotonine (1×10^-6 M) and barium chloride (2×10^-4 M). […] The contact time before adding the agonist was one minute.
(§3) For each compound the does response curves are obtained with 4 to 6 different concentrations and 3 to 5 independent tests. The agonist activity is expressed by pD2 (negative logarithm of the dose which produces 50% of the maximum effect).

[11] = system: contractions induced by barium chloride, isolated ileum; test: Antagonism of barium chloride-induced contractions, isolated guinea-pig ileum; conditions: barium chloride 2×10^-4 M; contact time one minute; read-out: Antagonism with various agents (IC50): BaCL2
Description: as §1, §2, §3

[12] = system: isolated ileum; test: Agonist action on isolated guinea-pig ileum; conditions: negative logarithm of the dose producing 50% of maximum effect
Description: as §1, §2, §3

[13] = system: contractions induced by acetylcholine, isolated colon; test: Antagonism of acetylcholine-induced contractions, isolated colon of rat; conditions: acetylcholine 3×10^-6 M; contact 3 minutes
Description: The remarkable antagonist action of the compounds of the invention was confirmed on the isolated colon of rats. In this test it was established whether the antagonist activity was of competitive or non-competitive type.
The following method was used: segments of the colon of rats of about 2.5 cm are washed and suspended in an insulated bath containing 10 ml of a solution of De Jalon having the following composition: (mM): NaCl 154; KCl 5.7; CaCl2 0.27; NaHCO3 5.9 and glucose 2.5. The temperature of the bath is maintained at 32° C. In these conditions, while maintaining the preparation under a tension of 1 g, the spontaneous activity of the colon is minimal. After a stabilization period of at least 30 minutes, the tension variations are recorded using an isometric transducer connected to a recorder. A series of tests was carried out to evaluate the antagonist activity in relation to the contractions induced by a maximum dose of acetylcholine. (3×10^-6 M).
The compounds are left in contact with the preparation for 3 minutes before adding acetylcholine.
Atropine was used as a reference product. For each compound the dose-response curves are obtained with 4 to 6 different concentrations and 3 to 5 independent tests.

[14] = system: cholinomimetic effects induced by carbachol; test: In vivo anticholinergic action: inhibition of carbachol-induced cholinomimetic effects; parameters: species or system CD1 male mice; conditions: i.p.; for ED50 / ED (1 degree C): Mus musculus, ip, 0.5 h, carbachol 1 mg/kg s.c. 30 min later; for ED (1 degree C): rectal temperature, read-out: Body Temperature: dose able to increase by 1° C. the hypothermic effect induced by carbachol; for selective anticholinergic action in vivo: mice, in words
Description: The anticholinergic activity of the compounds was determined by evaluating the capacity to inhibit cholinomimetic effects induced by carbachol. Atropine sulphate was used as reference product.
CD1 male mice are used weighing 25 to 30 g. They are divided into groups of 5 animals and treated by intraperitoneal route, in scaled doses, with the products or with 0.25% of Methocel for the controls. 10 animals are used for each dose. 30 minutes after the administration of the compounds, the mice are subcutaneously injected with 1 mg/kg of carbachol, dissolved in physiological serum.
Each animal was examined 30 minutes after the injection of carbachol to evaluate the presence of diarrhea, salivation and watering of the eyes; the body temperature was also measured using a thermocouple inserted 1.5 cm into the rectum.
For each compound, there was determined, and recorded in the following table, the dose able to inhibit, in 50% of the animals, the appearance of peripheral cholinomimetic symptoms induced by carbachol, and to increase by 1° C. the hypothermic effect induced by the cholinergic agent.

[15] = read-out: dose able to inhibit, in 50% of the animals, Diarrhea
[16] = read-out: dose able to inhibit, in 50% of the animals, Salivation
[17] = read-out: dose able to inhibit, in 50% of the animals, Watering of Eyes

With `CC(C)(C)c1ccc(S(=O)(=O)N2CCCC2=O)cc1` [Example 1, 1-(4-tert-butylbenzenesulphonyl)-2-pyrrolidinone] the IC50 [1] was 1.3 µM, the IC50 [2] was 5 to 10 µM and the IC50 [3] was 5 to 10 µM. It also gave an IC50 [4] of 5 to 10 µM, an IC50 [5] of 5 to 10 µM and an IC50 [6] of 5 to 10 µM. The IC50 [7] was 5 to 10 µM, the IC50 [8] was 5 to 10 µM and the IC50 [9] was 5 to 10 µM. The IC50 [10] was greater than 100 µM, the IC50 [11] was 16 µM and the “Agonist Action (pD2)” value [12] was less than 4. For the same compound, the IC50 [13] was 0.28 µM, the ED50 [14, 15] was 7 mg/kg and the ED50 [14, 16] was 10 mg/kg. For the same compound, the ED50 [14, 17] was greater than 50 mg/kg, the ED (1 degree C) [14] was 50 mg/kg and the “selective anticholinergic action in vivo” value [14] was “selective anticholinergic action on the intestinal musculature”.
Compound `CCN(CC)c1ccc(S(=O)(=O)N2CCCC2=O)cc1` [Example 2, 1-[4-(diethylamino)benzenesulphonyl]-2-pyrrolidinone] has an IC50 [1] of 1.3 µM, an IC50 [2] of 5 to 10 µM and an IC50 [3] of 5 to 10 µM. It also gave an IC50 [4] of 5 to 10 µM, an IC50 [5] of 5 to 10 µM and an IC50 [6] of 5 to 10 µM. It also gave an IC50 [7] of 5 to 10 µM, an IC50 [8] of 5 to 10 µM and an IC50 [9] of 5 to 10 µM. The IC50 [10] was greater than 100 µM, the IC50 [11] was 6 µM and the “Agonist Action (pD2)” value [12] was less than 4. It also gave an IC50 [13] of 0.16 µM, an ED50 [14, 15] of 7 mg/kg and an ED50 [14, 16] greater than 50 mg/kg. The ED50 [14, 17] was greater than 50 mg/kg, the ED (1 degree C) [14] was greater than 50 mg/kg and the “selective anticholinergic action in vivo” value [14] was “selective anticholinergic action on the intestinal musculature”.
